# Measured values reported in patent US9415046B2, “Compositions and methods for inhibiting inflammation from and rejection of biomaterials and other methods” (YALE UNIVERSITY, priority 2009, dated 2016).
# “Also recorded” adds a separate entry of the source.
# Assays:
# Assay type in all cases: in vivo
# [1] = system: C57BL/6 mice; experiment: Foreign body reaction to 150 micron polystyrene beads injected into the abdominal cavity; details: 24 hours, FIG. 2
# Method: (§1) Two models of the foreign body reaction were tested. In the first model, injection of 150 micron polystyrene beads into the abdominal cavity of C57BL/6 was followed by analysis of cellular infiltrate 24 hours later. In the second model, implantation of a 6 mm disc of silicone subcutaneously was followed by analysis of the foreign body reaction about one month later. The above two models were performed on mice on normal drinking water or with aspirin (60 mg/ml). […] The experiment evidenced that the cellular infiltrate at 24 hours was comprised principally of immune cells (neutrophils and macrophages).
# [2] = system: wild-type mice; experiment: Foreign body reaction to subcutaneously implanted 6 mm silicone disc; details: silicone implant, one month, aspirin 60 mg/ml in drinking water, P<0.05 compared to no ASA, FIG. 7
# Method: as §1, with “macrophages). […] A 6 mm disc of silicone was implanted subcutaneously in experimental mice (see above), followed by analysis of the foreign body reaction around one month later. The mice were placed on normal drinking water or water with aspirin at a concentration of 60 mg/ml. […] Wild-type mice were implanted with a silicone capsule on the side of the muscle and on the side of the skin. The mice were either given regular drinking water or drinking water containing 60 mg/ml aspirin. After one month, the mice were then analyzed to determine if there was an impact on the foreign body reaction which occurred as a consequence of implanting the silicone capsulate.” for “macrophages).”
# [3] = system: wild-type mice; experiment: APAP (acetaminophen) induced liver inflammation, liver injury and mortality; details: by down regulation of pro-inflammatory cytokines
# Method: APAP (Sigma, Mo.) solution was made fresh for each experiment in PBS at 20 mg/ml and heated in a water bath to 55° C. to dissolve. APAP was dosed at 500 mg/kg and injected I.P after 15 hrs of starvation. Animals were euthanized by ketamine/xylazine injection at 12 hours for collection of serum, isolation of liver lymphocytes or collection of liver tissue for histology, or they were observed every four hours for 72 hours until they reached criteria for euthanasia (lack of response to stimuli or lack of righting reflex). FIGS. 3A and B show less hemorrhage and cell death in the livers of mice lacking TLR9 compared to wild-type and FIGS. 3C and D show a similar affect of TLR7. […] The data was generated by a single ip injection of APAP at a dose of 500 mg/kg. Data in Figures A to D was generated 12 hours after APAP and E and F is over a 3 day period.
# Data was generated 12 hours after injection of APAP. […] The data was generated over 72 hours (3 days). […] Data was generated from 23 hours after injection of APAP.
structure (smiles),measurement,setting,value
"CC(=O)Oc1ccccc1C(=O)O [aspirin, acetylsalicylic acid]",foreign body reaction to polystyrene beads (number of cells in cellular infiltrate),[1]; continuous aspirin in drinking water (60 mg/ml),substantially diminished; also recorded: significantly reduced
same,composition of the cellular infiltrate (neutrophils and macrophages),[1]; continuous aspirin,not significantly altered
same,thickness of the foreign body reaction capsule on the side of the muscle and on the side of the skin,[2],significant reduction
same,effect on acetaminophen-induced liver injury,[3],protective effect
